Read-outs that look alike come from different tables or passages of the source. Blank lines part the entries; values can stand above or below the compound they belong to.
What was measured:
NCI-H522 cells = assay: Time-lapse microscopy of cell death; type: cell-based, human; details: for Time from initiation of ferroptosis until most/all cells were dead: CETZOLE-1 20 μM (most of the cells), HY-1 5 μM (all cells); for Start of ferroptosis after treatment: CETZOLE-1 20 μM, HY-1 5 μM
RPE cells = assay: cells; details: Homo sapiens, read-out: IC50 on RPE cells
SH-SY5Y cells = assay: MTT cell viability assay, SH-SY5Y neuroblastoma cells; type: cell-based, human; details: 0.5×, 1×, 2× IC50 of the controls on H522; HY-1 at 2.32 μM
PC-12 cells = assay: MTT cytotoxicity on undifferentiated and differentiated PC-12 cells; type: cell-based; details: MTT after 24 h of treatment
[1] = system: NCI-60 human tumor cell lines; assay: cells
[2] = system: HDAC 1, 2, 3, 4, 6, and 8; details: recombinant HDAC proteins
[3] = system: lipid peroxides in NCI-H522 cells; assay: C11-BODIPY lipid peroxidation assay; type: cell-based, human; details: NCI-H522, 10 μM, 6 h
LOXIMVI [4] = assay: cells; details: Homo sapiens, LOX IMVI, read-out: GI50, LOXIMVI
IGROV-1 [5] = assay: cells; details: Homo sapiens, IGROV-1, read-out: GI50, IGROV-1
PC-3 [6] = assay: cells; details: Homo sapiens, PC-3, read-out: GI50, PC-3
DU-145 [7] = assay: cells; details: Homo sapiens, DU-145, read-out: GI50, DU-145
Class I HDACs = details: read-out: IC50 for Class I HDACs; recombinant HDAC proteins
NCI-H23 cell line = details: one-dose; ref public data base of NCI (NSC 759852); cited from earlier work
DU-145 cells = details: one-dose; ref public data base of NCI (NSC 759852); cited from earlier work
RPMI-8226 = details: read-out: GI50, RPMI-8226; five-dose assay; ref public data base of NCI (NSC 759852); cited from earlier work
NCI-H23 = details: read-out: GI50, NCI-H23; five-dose assay; ref public data base of NCI (NSC 759852); cited from earlier work
SF-539 cell line = details: read-out: GI50, SF-539; five-dose assay; ref public data base of NCI (NSC 759852); cited from earlier work
LOXIMVI [8] = details: read-out: GI50, LOXIMVI; five-dose assay; ref public data base of NCI (NSC 759852); cited from earlier work
IGROV-1 [9] = details: read-out: GI50, IGROV-1; five-dose assay; ref public data base of NCI (NSC 759852); cited from earlier work
PC-3 [10] = details: read-out: GI50, PC-3; five-dose assay; ref public data base of NCI (NSC 759852); cited from earlier work
DU-145 [11] = details: read-out: GI50, DU-145; five-dose assay; ref public data base of NCI (NSC 759852); cited from earlier work
HS578 = details: read-out: GI50, HS578; five-dose assay; ref public data base of NCI (NSC 759852); cited from earlier work

Compound: C#Cc1nc(C2=C(C)[C@@H](O)CC2)cs1 [CETZOLE-1]
Time from initiation of ferroptosis until most/all cells were dead (NCI-H522 cells): ≤ 8 h
Start of ferroptosis after treatment (NCI-H522 cells): approximately 12 h
IC50 (RPE cells): > 30000 nM

Compound: C#Cc1nc(C(=O)NCCCCCCC(=O)OC)cs1 [FC-1, Methyl 7-(2-Ethynylthiazole-4-carboxamido)heptanoate]
Effect on neuronal cells (SH-SY5Y viability, neurotoxicity) (SH-SY5Y cells): significant neurotoxicity
Effect on PC-12 cells (differentiated and undifferentiated) (PC-12 cells): resistant

Compound: O=C(CCCCCCNC(=O)c1csc(Br)n1)NO [HC-1, 2-Bromo-N-(7-(hydroxyamino)-7-oxoheptyl)thiazole-4-carboxamide]
Effect on neuronal cells (SH-SY5Y viability, neurotoxicity) (SH-SY5Y cells): very mild toxicity
GI50 ([1]; read-out: Average GI50): 1510 nM

Compound: O=C(/C=C/C=C/c1csc(Br)n1)NO [HC-4, (2E,4E)-5-(2-Bromothiazol-4-yl)-N-hydroxypenta-2,4-dienamide]
HDAC inhibitory activity [2]: poor HDAC inhibitory activity

GI50 (PC-3 [6]): 2000 nM
GI50 (DU-145 [7]): 360 nM
Compound: C#Cc1nc(C(=O)NCCCCCCC(=O)NO)cs1 [HY-1, 2-Ethynyl-N-(7-(hydroxyamino)-7-oxoheptyl)thiazole-4-carboxamide]
Effect on neuronal cells (SH-SY5Y viability, neurotoxicity) (SH-SY5Y cells): no neurotoxic effects
Effect on PC-12 cells (differentiated and undifferentiated) (PC-12 cells): behaved like the HDAC control HC-1
Lipid peroxide levels (C11-BODIPY 581/591) [3]: increased levels of lipid peroxides
Time from initiation of ferroptosis until most/all cells were dead (NCI-H522 cells): ≤ 2 h
Start of ferroptosis after treatment (NCI-H522 cells): 8 h
GI50 ([1]; read-out: Average GI50): 850 nM
GI50 ([1]; read-out: GI50 values as low as (best cell line)): 20 nM
GI50 (LOXIMVI [4]): 20 nM
GI50 (IGROV-1 [5]): 570 nM

Compound: C#Cc1nc(/C=C\CCCCCC(=O)NO)cs1 [HY-2, (Z)-8-(2-Ethynylthiazol-4-yl)-N-hydroxyoct-7-enamide]
GI50 ([1]; read-out: Average GI50): 2180 nM

Compound: C#Cc1nc(/C=C/CCCCCC(=O)NO)cs1 [HY-3, (E)-8-(2-Ethynylthiazol-4-yl)-N-hydroxyoct-7-enamide]
GI50 ([1]; read-out: Average GI50): 3390 nM

Compound: C#Cc1nc(/C=C/C=C/C(=O)NO)cs1 [HY-4, (2E,4E)-5-(2-Ethynylthiazol-4-yl)-N-hydroxypenta-2,4-dienamide]
Effect on neuronal cells (SH-SY5Y viability, neurotoxicity) (SH-SY5Y cells): not showing attenuated neurotoxicity
HDAC inhibitory activity [2]: poor HDAC inhibitory activity

IC50 (Class I HDACs): 890 to 1100 nM
Compound: C#Cc1nc(/C=C/C(=O)NO)cs1 [HY-5, (E)-3-(2-Ethynylthiazol-4-yl)-N-hydroxyacrylamide]
GI50 ([1]; read-out: Average GI50): 2470 nM

Compound: COC(=O)CCCCCCNC(=O)c1csc(Br)n1 [NC-1, Methyl 7-(2-Bromothiazole-4-carboxamido)heptanoate]
Effect on neuronal cells (SH-SY5Y viability, neurotoxicity) (SH-SY5Y cells): no effect

Compound: O=C(CCCCCCC(=O)Nc1ccccc1)NO [SAHA]
Time after treatment at which cells were still alive (NCI-H522 cells; SAHA 5 μM): ≥ 60 h
Growth %, NCI-H23 (NCI-H23 cell line): 3.30%
Growth %, DU-145 (DU-145 cells): 3.5%
GI50 (RPMI-8226): 1500 nM
GI50 (NCI-H23): 2000 nM
GI50 (SF-539 cell line): 2000 nM
GI50 (LOXIMVI [8]): 1250 nM
GI50 (IGROV-1 [9]): 2000 nM
GI50 (PC-3 [10]): 1580 nM
GI50 (DU-145 [11]): 1250 nM
GI50 (HS578): 2000 nM
